# Measured values from patent publication US20110190249A1, “THERAPEUTIC METHODS AND USES OF SAPOGENINS AND THEIR DERIVATIVES” (PHYTOPHARM PLC, priority 2002, published 2011).
# Marks after values point to notes of the source that are not given here.
# B1: BDNF: brain-derived neurotrophic factor, positive control (protein, UniProt P23560 19-247, looked up)
# Neurotrophic factor BDNF …: APMKEANIRGQGGLAYPGVRTHGTLESVNGPKAGSRGLTSLADTFEHVIEELLDEDQKVRPNEENNKDADLYTSRVMLSSQVPLEPPLLFLLEEYKNYLDAANMSMRVRRHSDPARRGELSVCDSISEWVTAADKKTAVDMSGGTVTVLEKVPVSKGQLKQYFYETKCNPMGYTKEGCRGIDKRHWNSQCRTTQSYVRALTMDSKKRIGWRFIRIDTSCVCTLTIKRGR
# Experiments:
# [1] = test system: rat primary cortical neurones; test: Reversal of glutamate-induced neurodegeneration (LDH), treatment after glutamate exposure; format: cell-based; conditions: LDH after 24 h, control = 100
# Experimental: (§1) Neuronal cell survival was evaluated by measuring lactate dehydrogenase (LDH) activity released in the media 24 h after test compound treatment or glutamate+test compound exposure, using the CytoTox 96 non-radioactive kit and quantitated by measuring wavelength absorbance at 450 nm.
# As above mentioned, exposure of rat primary cortical cultures to glutamate (100 μM; 10 min) caused an increase in lactate dehydrogenase (LDH) activity measured after 24 h, indicating a significant neurodegeneration.
# [2] = test system: rat primary cortical neurones; test: Neurite outgrowth in rat primary cortical neurones; format: cell-based; conditions: for Number of neurones displaying neurites, Mean ± s.e.m (%): control 47 ± 2; for Neurite length measured using optical micrometry, Mean ± s.e.m (%): control 100 ± 4
# Text: Neurodegenerative disorders are characterised by a progressive loss of neurones and degradation of neuronal processes (neurites). Agents that induce neurite outgrowth may promote the formation of new connections between neurones and ameliorate the symptoms of neurodegenerative conditions (Katzman et al, Faseb J., 5, 278-286, 1991).
# [3] = test system: rat mesencephalic dopaminergic neurones; test: Treatment of dopaminergic neurones after MPP+ exposure (survival, neurites); format: cell-based; conditions: treatment 0.03 nM; MPP+ 2 μM; MPP+ alone 76 ± 4
# Text: Smilagenin and sarsasapogenin also reverse the neurodegeneration caused by exposure to the neurotoxin 1-methyl-4-phenylpyridinium (MPP^+) in rat mesencephalic dopaminergic neurones; a model of Parkinson's disease in vitro.
# Glial cell line-derived neurotrophic factor (GDNF) and brain-derived neurotrophic factor (BDNF), molecules that are involved in neuronal growth, and 17β-oestradiol were used as positive controls. Treatment with smilagenin and sarsasapogenin produced a significant increase in the neuronal survival compared to neurones exposed to MPP^+ alone (Table 8).
# Exposure to MPP^+ caused not only a significant decrease in dopaminergic number but also in the percentage of neurites.
# [4] = test system: rat primary spinal motor neurones; test: Glutamate-induced neurodegeneration in spinal motor neurones (LDH); format: cell-based; conditions: control 100 ± 1
# Experimental: The objective of this study was to examine the effects of sarsasapogenin and smilagenin on the survival of rat primary spinal motor neurones exposed to glutamate, which is known to induce neurodegeneration in this model of motor neurodegeneration.
# Rat motor neurones were prepared according to the method described by (Martinou et al, Neuron, 8, 737-744, 1992). On day 10, medium was removed and the cultures were exposed to glutamate (4 microM) for 10 min at 37° C. in defined medium. After the glutamate exposure, cultures were washed with Dulbecco modified Eagle medium at 37° C. then placed in fresh culture medium containing test compounds. After 48 h, the extent of spinal motor neurone degeneration was determined by measuring the amount of lactate dehydrogenase (LDH) released into the culture medium as above.
# [5] = test system: muscarinic acetylcholine receptor; test: Brain M receptor density (3H-QNB) in amyloid β + ibotenic acid rat model; format: in vivo; conditions: 18 mg/kg/day gastric tube, two months; model 713 ± 48, control 859 ± 101
# Experimental: (§2) An in vivo model of Alzheimer's disease was used to model neurodegeneration. In this model the neurotoxic agents (amyloid β and ibotenic acid) are injected into the brain of the rat. This leads to neuronal loss, receptor loss and cognitive impairment. […] In addition the co-injection of amyloid β with a small amount of ibotenic acid into the rat hippocampus synergistically produces neuronal loss with infiltration of glial cells not only adjacent but also far from the injected site (Morimoto et al., 1998: Neuroscience, 84, 479-487).
# (§3) Our studies used the method of Morimoto (Morimoto et al., 1998: Neuroscience, 84, 479-487) with some modifications (unilateral instead of bilateral injection). Three months old, Sprague Dawley rats, were randomly divided into different groups. Injection of amyloid β1-40 and ibotenic acid (both from Sigma) was accomplished by means of a stereotaxic instrument (Stoelting Co.) and the coordinates were AP=−0.5 mm […], L=−2.8 mm […], H=−7.0 mm (ventral to dura). The dose for each rat was amyloid β1-40 (4 μg) and ibotenic acid (1 μg) in 1 μl of saline. The injection was completed in 20 min, and the needle was withdrawn 10 min later. Then the skin was sutured.
# (§4) The 8 groups were: • Operated control injected with normal saline (control) • Model (control injected with amyloid β+ibotenic acid) • Model+Episarsasapogenin cathylate (18 mg/kg/day)* • Model+Sarsasapogenin cathylate (18 mg/kg/day)* • Model+Episarsasapogenin ethylsuccinate (18 mg/kg/day) (comparison) • Model+Episarsasapogenin (18 mg/kg/day)* • Model+Epismilagenin (18 mg/kg/day)* • Model+Diosgenin (i.e. negative control, 18 mg/kg/day)
# (§5) Episarsasapogenin cathylate, sarsasapogenin cathylate, episarsasapogenin ethylsuccinate (comparison compound), episarsasapogenin, epismilagenin and diosgenin (all at a dosage of 18 mg/kg/day) were administered to animals as stable suspensions in CMC—Na (0.5%) once daily through a gastric tube. The control and the model group were given the same volume of CMC—Na (0.5%) once daily. The drugs and vehicles were given for a period of two months, starting 20 days before operation.
# Muscarinic acetylcholine receptor density was assessed. The brain samples were homogenised, centrifuged, and the pellet of centrifugation at 27000×g was re-homogenised and used for measurement. The concentration of ^3H-QNB was chosen at the saturation range. After incubation and separation, the bound portion was measured by liquid scintillation counter.
# [6] = test system: Sprague Dawley rats injected with amyloid β1-40 and ibotenic acid; test: Step-through test in amyloid β + ibotenic acid rat model; format: in vivo; conditions: 18 mg/kg/day gastric tube, two months; errors in 5 min; model 4.00 ± 2.40, control 0.60 ± 0.70
# Experimental: as §2, §3, §4, §5
# Step-Through Test: learning and memory. The effect of test compounds on learning and memory was assessed using the step-through test. A 60×15×15 cm box, divided into 2 equally sized rooms, one dark room with copper rod base, which was electrically charged (40 V ac) when in use, while the other was a light room but not electrically charged. Between the two rooms there is an opening (hole) for the rat to go through. The experiment is carried out for each rat on two consecutive days. The first day is for training; when the rat is adapted in the box for the first 3 min, then put in the light room, with its back toward the hole, and the copper rods of the dark room are charged for 5 min. The second day is for testing, when the number of crosses in 5 min are recorded. Improvements in memory are signalled by a reduction in the number of crosses.
# [7] = test system: rat primary cortical neurones; test: Prevention of glutamate-induced neurodegeneration (LDH release), pre-treatment; format: cell-based; conditions: 30 nM, given 24 h before glutamate; LDH 24 h after glutamate; control = 100
# Experimental: The objective of this study was to examine the effects of sarsasapogenin, episarsasapogenin cathylate, episarsasapogenin, epismilagenin and smilagenin on the survival of rat primary cortical neurones exposed to glutamate, which is known to induce neuro degeneration.
# Rat cortical neurones were cultured for 10 days; at day 10 the medium was changed to a serum-free defined medium. On day 12, 24 hours before glutamate exposure, cultures were washed and medium was replaced with fresh medium containing positive control (β-oestradiol), test compounds (sarsasapogenin, episarsasapogenin cathylate, episarsasapogenin, epismilagenin and smilagenin) or vehicle control (DMSO, 0.25%) or diosgenin as negative control.
# On day 13, cultures were exposed to glutamate. After the incubation period, the cultures were washed with and placed in fresh medium, supplemented with relevant compounds or vehicle to evaluate their protective effects, 24 h after glutamate exposure.
# as §1
# [8] = 3 nM after glutamate 100 μM 10 min
# [9] = 30 nM after glutamate 100 μM 10 min
Molecule,"Cortical neurones previously exposed to glutamate, Mean ± s.e.m (%) [1, 8] [%]","Cortical neurones previously exposed to glutamate, Mean ± s.e.m (%) [1, 9] [%]",M receptor density [5],Learning and memory Step through test Error No [6],further results
"CC(C)CCC1OC2C[C@H]3[C@@H]4CC[C@@H]5C[C@@H](O)CC[C@]5(C)[C@H]4CC[C@]3(C)[C@H]2[C@@H]1C (stereo partly drawn) [16,22-epoxycoprostan-3β-ol]",114 ± 7,134 ± 5,,,
"C[C@]12CC[C@@H]3c4ccc(O)cc4CC[C@H]3[C@@H]1CC[C@@H]2O [17β-oestradiol, reference compound]",69 ± 2,75 ± 5,,,"Number of neurones displaying neurites, Mean ± s.e.m (%) ([2]; 0.3 pM): 48 ± 2%; Neurite length measured using optical micrometry, Mean ± s.e.m (%) ([2]; 0.3 pM): 154 ± 5%; Number of neurones displaying neurites, Mean ± s.e.m (%) ([2]; 3 pM): 60 ± 2%; Neurite length measured using optical micrometry, Mean ± s.e.m (%) ([2]; 3 pM): 163 ± 4%; Number of neurones displaying neurites, Mean ± s.e.m (%) ([2]; 30 pM): 59 ± 2%; Dopaminergic neurones after MPP+ exposure (survival), Mean ± s.e.m (%) [3]: 106 + 5%; Glutamate-induced neurodegeneration in spinal motor neurones, Mean ± s.e.m (%) ([4]; 300 nM for 48 h after glutamate 4 microM 10 min): 116 + 6%"
"CC(C)CCC[C@@H](C)[C@H]1CC[C@H]2[C@@H]3CC[C@@H]4C[C@@H](O)CC[C@]4(C)[C@H]3CC[C@]12C [Coprosterol, coprosterol]",126 ± 5,116 ± 4,,,
"CCOC(=O)CCC(=O)OC1CCC2(C)C(CCC3C2CCC2(C)C3CC3OC4(CCC(C)CO4)C(C)C32)C1 (centres unmarked) [Episarsasapogenin ethylsuccinate, episarsasapogenin ethylsuccinate, reference compound]",,,774 ± 79 fmol/mg/protein,3.73 ± 1.35,
"CC1CCC2(OC1)OC1CC3C4CCC5CC(OC(=O)CN)CCC5(C)C4CCC3(C)C1C2C.Cl (centres unmarked) [Smilagenin glycinate hydrochloride, smilagenin glycinate hydrochloride]",117 ± 4,141 ± 6,,,
"C[C@@H]1CC[C@@]2(OC1)O[C@H]1C[C@H]3[C@@H]4CC[C@@H]5CC(=O)CC[C@]5(C)[C@H]4CC[C@]3(C)[C@H]1[C@@H]2C [Smilagenone, smilagenone]",119 ± 7,119 ± 4,,,
"C[C@@H]1CC[C@@]2(OC1)O[C@H]1C[C@H]3[C@@H]4CC=C5C[C@@H](O)CC[C@]5(C)[C@H]4CC[C@]3(C)[C@H]1[C@@H]2C [diosgenin, reference compound]",,49 ± 6,770 ± 68 fmol/mg/protein,3.75 ± 1.49,"Prevention of glutamate-induced neurodegeneration, Mean ± s.e.m (%) [7]: 72 ± 4%"
C[C@H]1CC[C@@]2(OC1)O[C@H]1C[C@H]3[C@@H]4CC[C@@H]5C[C@H](O)CC[C@]5(C)[C@H]4CC[C@]3(C)[C@H]1[C@@H]2C [episarsasapogenin],,,869 ± 104* fmol/mg/protein,1.50 ± 1.18*,"Prevention of glutamate-induced neurodegeneration, Mean ± s.e.m (%) [7]: 88 ± 3%"
C[C@@H]1CC[C@@]2(OC1)O[C@H]1C[C@H]3[C@@H]4CC[C@@H]5C[C@H](O)CC[C@]5(C)[C@H]4CC[C@]3(C)[C@H]1[C@@H]2C [epismilagenin],,,877 ± 90* fmol/mg/protein,1.73 ± 0.91*,"Prevention of glutamate-induced neurodegeneration, Mean ± s.e.m (%) [7]: 79 ± 2%"
CCOC(=O)OC1CCC2(C)C(CCC3C2CCC2(C)C3CC3OC4(CCC(C)CO4)C(C)C32)C1 (centres unmarked) [sarsasapogenin cathylate],,,916 ± 158* fmol/mg/protein,1.36 ± 1.03*,
B1,,,,,"Glutamate-induced neurodegeneration in spinal motor neurones, Mean ± s.e.m (%) ([4]; 3 nM for 48 h after glutamate 4 microM 10 min): 148 ± 8%"
